These results are taken from paper PMC7582602, “Beyond the Canonical Endocannabinoid System. A Screening of PPAR Ligands as FAAH Inhibitors” (International Journal of Molecular Sciences, 2020).

Like-named read-outs stand apart in the source and are kept apart here.

One data set has as its target T1, FAAH Human recombinant (Homo sapiens, UniProt O00519).
T1 construct: purchased Cayman Chemical
T1 sequence (O00519 1-579): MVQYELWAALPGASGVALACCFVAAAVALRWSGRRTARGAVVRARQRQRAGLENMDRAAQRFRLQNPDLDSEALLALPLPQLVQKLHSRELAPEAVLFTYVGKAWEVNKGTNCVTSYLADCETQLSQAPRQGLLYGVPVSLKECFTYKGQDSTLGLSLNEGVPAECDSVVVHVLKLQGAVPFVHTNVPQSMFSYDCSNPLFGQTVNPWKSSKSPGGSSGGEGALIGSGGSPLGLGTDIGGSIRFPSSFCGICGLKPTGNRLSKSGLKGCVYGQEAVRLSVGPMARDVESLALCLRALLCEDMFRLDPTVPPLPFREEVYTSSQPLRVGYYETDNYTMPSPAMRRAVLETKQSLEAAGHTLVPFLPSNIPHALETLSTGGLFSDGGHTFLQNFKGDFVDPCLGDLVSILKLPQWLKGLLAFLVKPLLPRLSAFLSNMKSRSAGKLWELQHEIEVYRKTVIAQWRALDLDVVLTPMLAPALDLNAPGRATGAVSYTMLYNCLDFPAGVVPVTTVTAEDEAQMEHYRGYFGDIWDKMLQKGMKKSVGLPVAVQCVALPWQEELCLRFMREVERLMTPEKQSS
Briefly: FAAH inhibition assay (fluorometric, AMC-AA substrate). Type of data set: biochemical. Conditions: for IC50: human recombinant FAAH, mean ± SEM, i: inactive; for inhibition at 100 µM: read-out: FAAH % inhibition @ 100 μM. How it is done: Briefly, 96-well black flat-bottom microtiter NBS plates (COSTAR flat black) were utilized to perform the assays (in triplicate).
Control wells lacking the inhibitor and blank wells lacking both inhibitor and enzyme were used to calculate percent inhibition for each tested compound. IC50 values were calculated via GraphPad Prism 5.0 (GraphPad Software, La Jolla, CA, USA) and are reported as mean ± SEM of at least two independent measurements performed in triplicate.

Data set [1] has as its target T2, human PPARα (Homo sapiens, UniProt Q07869).
T2 sequence (Q07869 239-466 limits assumed): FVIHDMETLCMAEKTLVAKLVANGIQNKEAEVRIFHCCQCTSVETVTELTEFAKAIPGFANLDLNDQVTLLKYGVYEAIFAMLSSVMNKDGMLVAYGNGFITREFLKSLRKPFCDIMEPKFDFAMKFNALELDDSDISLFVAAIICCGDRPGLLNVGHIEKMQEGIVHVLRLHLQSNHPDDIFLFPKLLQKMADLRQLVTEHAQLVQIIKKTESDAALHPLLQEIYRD
Kind of data set: GAL4-PPARα-LBD transactivation (luciferase) assay in HepG2 cells. Conditions: for Emax: HepG2, read-out: PPARα Emax.
Experimental: (§1) Transactivation assays were conducted seeding 10^5 cells/well in a 24-well plate. The cells were transfected after 24 h with the calcium phosphate method CAPHOS®, following the manufacturer’s guidelines. Plasmids encoding the fusion proteins GAL4-PPARa-LBD, GAL4-PPARg-LBD, GAL4-PPARd-LBD or GAL4-FXR-LBD (30 ng), pGAL5TKpGL3 (100 ng), and pCMVbgal (250 ng) were used. Treatment of the cells with the investigated compounds was carried out 4 h after transfection, in triplicate, and the cells were incubated in the treated medium for additional 20 h. Cells were then lysed and luciferase activity in the extract was determined via a VICTOR^3 V Multilabel Plate Reader, PerkinElmer).

The target of data set [2] is T3, human PPARγ (Homo sapiens, UniProt P37231).
T3 sequence (P37231 238-503 limits assumed): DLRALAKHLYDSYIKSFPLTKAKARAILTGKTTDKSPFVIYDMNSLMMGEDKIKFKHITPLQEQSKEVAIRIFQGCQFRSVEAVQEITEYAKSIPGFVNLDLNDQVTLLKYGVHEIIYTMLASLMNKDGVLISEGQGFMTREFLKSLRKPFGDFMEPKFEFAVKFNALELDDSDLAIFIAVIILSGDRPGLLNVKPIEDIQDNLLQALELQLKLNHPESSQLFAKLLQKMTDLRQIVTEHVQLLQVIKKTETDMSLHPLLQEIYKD
Kind of data set: GAL4-PPARγ-LBD transactivation (luciferase) assay in HepG2 cells. The settings on record: for Emax: HepG2, read-out: PPARγ Emax.
Experimental: as §1

The target of data set [3] is T2, human PPARα. Conditions: previously reported compound; cited from earlier work.
Data set [4] concerns the target T3, human PPARγ. The settings on record: previously reported compound; cited from earlier work.
The next data set in a line: LogD. Type of data set: physicochemical. The settings on record: called measured LogD values.
The next data set deals with FAAH. Also noted: method as in PMID 23240907. Conditions: literature value for carprofen; cited from earlier work.

Molecule `CC(Oc1ccc(CCc2ccccc2)cc1)C(=O)O` (racemic) [Compound 16] registered a melting point of 106 to 107 °C. For the same molecule, on FAAH Human recombinant, the IC50 was greater than 100 µM and the inhibition at 100 µM amounted to 32.2%. Also, on human PPARα [1], the midpoint of the response, the EC50, lay at 17.6 ± 3 µM and the Emax was found to be 116 ± 1%. Besides, at human PPARγ [2], the EC50 was 24 ± 6 µM and the Emax was 18 ± 7%.
With `O=C(O)COc1ccc(CCc2ccccc2)cc1` [Compound 15, 4-phenethyl-phenoxyacetic acid], the melting point was 130 to 131 °C. Also, on FAAH Human recombinant, the IC50 is roughly 100 µM and the inhibition at 100 µM came to 63%.
As for `O=C(C=Cc1ccc(O)c(O)c1)N[C@@H](Cc1ccccc1)C(=O)O` [Compound 33], the melting point is 198 to 199 °C. Besides, the IC50 on FAAH Human recombinant came to 12.6 ± 3.1 µM.
Regarding `CCCCCCCN(CCc1ccc(O[C@H](C)C(=O)O)cc1)c1nc2ccccc2o1` [Compound 26], at FAAH Human recombinant, the IC50 was greater than 100 µM and the inhibition at 100 µM was 35%. In addition, the “PPARα Emax” value at human PPARα [3] is 93 ± 6%. In addition, the “PPARγ Emax” value on human PPARγ [4] is 59 ± 2%.
In the case of `O=C(O)C(Cc1ccccc1)Oc1ccc(Cc2ccccc2)cc1` (centres unmarked) [Compound 14], on FAAH Human recombinant, the “activity on FAAH (in words)” value is “completely inactive” and the IC50 is greater than 100 µM. Further, the logD in the data set “LogD” is 2.62. Also, at human PPARα [3], the “PPARα Emax” value was 115 ± 27%. For the same molecule, the “PPARγ Emax” value on human PPARγ [4] is recorded as 42 ± 1%.
`O=C(/C=C/c1ccccc1)O[C@@H](Cc1ccccc1)C(=O)O` [(S)-28]: the IC50 at FAAH Human recombinant was greater than 100 µM. The figures for the Emax at human PPARα [1] and on human PPARγ [2] were 34 ± 8% and 9 ± 6%, respectively.
Take `CCCc1c(OCCCOc2ccc(OCC(=O)O)cc2)ccc(C(C)=O)c1O` [Compound 3, L165,041, reference compound]: at FAAH Human recombinant, the “activity on FAAH (in words)” value is listed as “little to no activity”, the IC50 is greater than 100 µM and the inhibition at 100 µM is 40%.
`O=C(O)C(Cc1ccccc1)Oc1ccc(NCc2ccccc2)cc1` (centres unmarked) [Compound 20]: on FAAH Human recombinant, the concentration for half-maximal inhibition (IC50) was greater than 100 µM and the inhibition at 100 µM turned out to be 39.2%. Further, the “PPARα Emax” value at human PPARα [3] was 78 ± 4%. For the same molecule, the “PPARγ Emax” value on human PPARγ [4] is 27 ± 6%.
As to `O=C(Oc1ccc([N+](=O)[O-])cc1)N1CCN(Cc2cccc(Oc3ccccc3)c2)CC1` [JZL195, reference compound], the IC50 at FAAH Human recombinant turned out to be 0.019 ± 0.003 µM.
Regarding `O=C(O)C(Cc1ccccc1)Oc1ccc(/C=C\c2ccccc2)cc1` (centres unmarked) [Compound 19], on FAAH Human recombinant, the concentration for half-maximal inhibition (IC50) is greater than 100 µM and the inhibition at 100 µM stood at 30.5%.
On to `O=C(/C=C/c1ccc(O)c(O)c1)O[C@H](Cc1ccc(O)c(O)c1)C(=O)O` [Compound 4, Rosmarinic acid], for which, on FAAH Human recombinant, the 50% inhibitory concentration (IC50) was roughly 100 µM and the inhibition at 100 µM was 62%. In addition, on human PPARα [1], the “activity on PPARα (in words)” value is on record as “did not find any activity”. For the same molecule, on human PPARγ [2], the “activity on PPARγ (in words)” value is “did not find any activity”.
Regarding `COc1ccc(C=CC(=O)N[C@@H](Cc2ccc(O)cc2)C(=O)O)cc1OC` [Compound 35, (S)-2-(3-(3,4-dimethoxyphenyl)acrylamido)-3-(4-hydroxyphenyl)propanoic acid], the melting point fell in the range of 105 to 108.5 °C.
Take `CCCCCCCN(CCc1ccc(OCC(=O)O)cc1)c1nc2ccccc2o1` [Compound 8]: at FAAH Human recombinant, the IC50 turned out to be 30.5 ± 12.6 µM. Moreover, at human PPARα [3], the EC50 is 0.12 ± 0.16 µM and the “PPARα Emax” value is listed as 87 ± 7%. Also, at human PPARγ [4], the EC50 was 0.83 ± 0.75 µM and the “PPARγ Emax” value is given as 37 ± 11%.
Consider `Cc1cccc(Nc2cc(Cl)nc(SCC(=O)O)n2)c1C` [Compound 2, Wy 14,643, reference compound], for which, on FAAH Human recombinant, the “activity on FAAH (in words)” value is reported as “little to no activity” and the IC50 is greater than 100 µM.
For `Oc1ccc(/C=C/c2cc(O)cc(O)c2)cc1` [Compound 12, resveratrol], the half-maximal inhibitory concentration (IC50) at FAAH Human recombinant worked out at 26.1 ± 11.4 µM.
As to `CC(Oc1ccc(Cc2ccc(OCc3coc(-c4ccccc4)n3)cc2)cc1)C(=O)O` (centres unmarked) [Compound 17], the IC50 at FAAH Human recombinant was greater than 100 µM. In addition, at human PPARα [3], the “PPARα Emax” value is on record as 47 ± 13. Further, the “PPARγ Emax” value at human PPARγ [4] is 26 ± 3.
Take `CCCCCCCN(CCc1ccc(O[C@@H](C)C(=O)O)cc1)c1nc2ccccc2o1` [Compound 25]: at FAAH Human recombinant, the IC50 was roughly 100 µM and the inhibition at 100 µM was determined as 45.1%. Also, the “PPARα Emax” value on human PPARα [3] is 78 ± 4%. Moreover, the “PPARγ Emax” value on human PPARγ [4] is 32 ± 5%.
Consider `O=C(O)COc1ccc(Cc2ccccc2)cc1` [Compound 5, 4-benzyl-phenoxyacetic acid], for which the melting point was in the range of 117 to 118 °C. Further, on FAAH Human recombinant, the IC50 worked out at 40.2 ± 17.7 µM. In “LogD”, this molecule displayed a logD of 0.27. At human PPARα [1], the EC50 was 24 ± 5 µM and the Emax was 34 ± 8%. Further, on human PPARγ [2], the EC50 was determined as 33 ± 23 µM and the Emax is 9 ± 6%.
With `CC(Oc1ccc(Cc2ccccc2)cc1)C(=O)O` (racemic) [Compound 13, (R,S)-2-(4-benzyl)-phenoxypropanoic acid], the melting point was in the range of 102 to 104 °C. Moreover, on FAAH Human recombinant, the IC50 was greater than 100 µM and the inhibition at 100 µM came out at 30%. In addition, on human PPARα [1], the midpoint of the response, the EC50, lay at 4.6 ± 1.8 µM and the Emax stood at 116 ± 1%.
With `O=C(Cc1ccccc1)c1ccc(O[C@@H](Cc2ccccc2)C(=O)O)cc1` [Compound 21], on FAAH Human recombinant, the IC50 is greater than 100 µM and the inhibition at 100 µM is 34%. Further, on human PPARα [3], the EC50 is 1.8 ± 1 µM and the “PPARα Emax” value is listed as 106 ± 1%. Further, at human PPARγ [4], the EC50 is 9.1 ± 0.9 µM and the “PPARγ Emax” value is reported as 40 ± 2%.
Turning to `CC(C(=O)O)c1ccc2c(c1)[nH]c1ccc(Cl)cc12` (centres unmarked) [carprofen], the IC50 in the data set on FAAH was 79 ± 20 µM.
As to `O=C(O)C(Cc1ccccc1)Oc1ccc(/C=C/c2ccccc2)cc1` (centres unmarked) [Compound 18], the IC50 on FAAH Human recombinant worked out at 24 ± 2.5 µM.
